Values after ≈ are worked out from the molar mass of the structure shown. Where a SMILES comes first, the peptide text is derived from it.
Columns and labels:
[1] = system: T. thermophilus cells; assay: Electron microscopy of intact and peptide-treated T. thermophilus cells; format: cell-based
Method: Along with the spectrophotometric method for determining the antimicrobial activity of peptides, the viability of cells was evaluated using electron microscopy. […] At the given peptide concentration, cells with a typical morphology and flagella were often found. Many protein aggregates were also observed. The absence of an antimicrobial effect with an increase in the concentration of the peptide to 1000 μg/mL, consistent with the spectrophotometry data of the antimicrobial activity of peptides (Figure 3).
(§1) The presence of amyloid fibrils in the test samples was monitored by transmission electron microscopy (TEM). End-point solutions of peptides were collected and the samples were dissolved in the same solution to 0.2 mg/mL before studying with electron microscopy. A formvar-coated copper grid 400 mesh (Electron Microscopy Sciences, Hatfield, PA, USA) was placed on a 10 μL sample. After 5 min absorption, the grids with the preparation were negatively stained for 1.5–2.0 min with 1% (weight/volume) aqueous solution of uranyl acetate. The excess of the staining agent was removed with filter paper. The preparations were analyzed using a JEM-100C (Jeol, Tokyo, Japan) transmission electron microscope at the accelerating voltage of 80 kV. Images were recorded on the Kodak electron image film (SO-163) at nominal magnification of 40,000–60,000.

[2] = Transmission electron microscopy of peptide preparations; format: physicochemical; details: peptide alone, negative staining, TEM
Method: as §1

[3] = Thioflavine T fluorescence assay of peptide aggregation; format: physicochemical; details: peptide alone, ThT 0.2 mM, 37 °C
Method: Fibrils growth was monitored by thioflavine T (ThT) (Sigma-Aldrich, St. Louis, MO, USA) fluorescence. The kinetics of aggregation of peptides was studied using the method of fluorescence spectroscopy. Each kinetics graph was plotted based on the average of several results measured at different time intervals. To facilitate dissolution, all the samples of peptides were pre-dissolved in 100% DMSO, then buffers 50 mM Tris-HCl, pH 7.5, 150 mM NaCl or 20% acetic acid pH 2.0, 150 mM NaCl were added (1% final concentration DMSO) and filtered through […] membranes to remove small aggregates. ThT is the most commonly used fluorescent dye for the following amyloid formation semi-quantitatively in vitro. Free ThT has excitation and emission maxima at ∼350 and ∼450 nm, respectively (after binding to fibrils, the excitation and emission λmax change to ∼450 and ∼482–485 nm, respectively). A stock solution of ThT was prepared at a concentration of 20 mM in 50 mM Tris-HCl, pH 7.5, 150 mM NaCl or 20% acetic acid pH 2.0, 150 mM NaCl, respectively and stored at 4 °C protected from light. The final concentration of ThT was 0.2 mM, and each peptide was 0.2 mM. ThT was present in the sample during the fibril formation reaction. Measurements of ThT fluorescence were performed on a Cary Eclipse fluorescence spectrophotometer (Varian, Mulgrave, Australia) in quartz cells 3 × 3 mm at 37 °C.

[4] = system: T. thermophilus cell culture; format: cell-based
Method: UV-Vis spectra were recorded using a spectrophotometr SF-102 (Akvilon, Moscow, Russia). At the end of the incubation, the density of the medium was estimated by spectrophotometry in a cuvette 10 mm with a total volume of 100 μL. The cuvettes were filled with the peptide water solutions and spectra were collected, using a wavelength from 600 nm. Biological activity of peptides was evaluated by their minimum concentration, which that may inhibit the growth of T. thermophilus bacteria culture. Biological activity of peptides was counted by using the following equation: (1) E=1−A (sample with peptide)/A (sample without peptide), where E is a biological activity of peptides, A is an optical absorption after 24 h incubation with and without peptide.
To construct a dose-effect curve and estimate the quantitative parameters of the curves, the statistical environment R and the drc package were used. The choice of model for describing the functional dependence was determined by several parameters: the logarithm of the maximum value of the likelihood function (logLik), the Akaike information criterion (IC), and the residual variance (Res var).
The algorithm for evaluating antimicrobial activity includes the study of this process and the dose–response relationship. The reaction of a biological object determines a quantitative assessment of the antimicrobial effect, depending not only on the concentration of the peptide, but also on the time of its action. Almost any impact begins with a certain threshold. An important final result of the experiment is the assessment of this threshold—the minimum inhibitory concentration (MIC) at which peptide influence is observed.

[5] = system: ribosomal S1 protein from T. thermophilus; assay: Electron microscopy, coaggregation of peptide with S1 protein
Method: as §1

Compound: CC[C@H](C)[C@H](NC(=O)[C@H](CCC(=O)O)NC(=O)[C@@H](NC(=O)[C@H](Cc1ccccc1)NC(=O)[C@@H](NC(=O)CNC(=O)[C@H](Cc1ccccc1)NC(=O)[C@H](CC(=O)O)NC(=O)[C@@H](NC(=O)[C@@H](NC(=O)CNC(=O)CN(C)C(=O)CNC(=O)CNC(=O)[C@H](CCCNC(=N)N)NC(=O)[C@H](CCCNC(=N)N)NC(=O)[C@H](CCCNC(=N)N)NC(=O)[C@H](CCC(N)=O)NC(=O)[C@H](CCCNC(=N)N)NC(=O)[C@H](CCCNC(=N)N)NC(=O)[C@H](CCCCN)NC(=O)[C@H](CCCCN)NC(=O)[C@@H](N)CCCNC(=N)N)C(C)C)[C@@H](C)O)C(C)C)C(C)C)C(=O)O [R23I] (HELM PEPTIDE1{R.K.K.R.R.Q.R.R.R.G.G.[Sar].G.V.T.D.F.G.V.F.V.E.I}$$$$V2.0; N-terminus and C-terminus assumed)
- cell morphology by electron microscopy ([1]; peptide 50 μg/mL): whole cells were practically absent
- cell morphology by electron microscopy ([1]; peptide 100 μg/mL): the number of cells decreased
- cell morphology by electron microscopy ([1]; peptide 1000 μg/mL): did not lead to the morphological changes compared with the control
- aggregate/fibril morphology according to electron microscopy [2]: aggregates of different sizes and complexes of aggregates are present
- amyloids in peptide preparation according to ThT fluorescence [3]: absence of R23I amyloids
- change of optical density of T. thermophilus culture over time ([4]; 50 μg/mL in medium, OD 600 nm versus sampling time, DMSO control reached 0.8): no increase in the optical density
- minimal inhibitory concentration (MIC) ([4]; T. thermophilus culture, optical absorption at 600 nm after 24 h incubation, 5 repeats for R23I, 2 for R23T and V10I): 50 µg/mL (≈ 18.6 µM)
- concentration at which a pronounced antibacterial effect is observed (no activity below) ([4]; T. thermophilus culture, additional concentrations 0.5-250 μg/mL tested): 40 µg/mL
- concentration leading to formation of aggregates in solution and increase in optical density ([4]; culture medium, OD 600 nm): ≥ 500 µg/mL
- morphology of peptide/S1 protein mixture by electron microscopy ([5]; peptide:S1 protein ratio 1:1): both the protein aggregates and fibrils were observed
- morphology of peptide/S1 protein mixture by electron microscopy ([5]; peptide:S1 protein ratio 5:1 (S1:peptide = 1:5)): both the protein aggregates and fibrils were observed
